This note sets out measurements from US11999727B2 (Tango Therapeutics, Inc., priority 2020, dated 2024).

Assay [1] deals with HAP1 MTAP-deleted cell line. Kind of assay: Viability assay, MTAP-deleted cell line. The assay is classed as cell-based. The note with it: Homo sapiens, HAP1, viability assay, HAP1 MTAP-deleted; read-out: HAP1 MTAP deleted viability. The text has this: Table 1 additionally indicates IC50 values in a viability assay for the MTAP-deleted cell line (column 10), indicating the effect of treatment with compound on cell survival.

For assay [2], the system named is HAP1 MTAP-intact cell line. The assay can be described thus: SDMA in-cell western assay, HAP1 MTAP-intact. Type of assay: cell-based. The note with it: Homo sapiens, HAP1, SDMA in-cell western, HAP1 MTAP-intact; read-out: MTAP HAP1 intact IC50. In short, it runs like this: (§1)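 Readout: in-cell western detection of SDMA. Cells: HAP1 expressing endogenous MTAP and an MTAP-null HAP1 counterpart. Output: IC50.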

Assay [3] has as its target T1, PRMT5 (Homo sapiens, UniProt O14744).
T1 construct: purchased Viva (custom protein)
The assay can be described thus: PRMT5 biochemical IC50 assay with MTA as cofactor. The conditions noted are these: PRMT5, MTA as cofactor; read-out: MTA IC50.

Assay [4] deals with T1, PRMT5. Kind of assay: PRMT5 biochemical IC50 assay with no cofactor. The conditions noted are these: PRMT5, no cofactor; read-out: No Cofactor/rel IC50. The text has this:
Table 1 indicates IC50 values (μM) against PRMT5 for exemplary compounds in the presence of SAM as cofactor, with no cofactor, and with MTA as cofactor, respectively (columns 4-6). […] Ki values can be calculated from the IC50 values as described in the Examples section. As detailed in the Examples section, for the assay performed in the presence of SAM, IC50=Ki×1.5 (Ki=IC50/1.5).

Assay [5] relates to HAP1 MTAP-deleted cell line. Kind of assay: SDMA in-cell western assay, HAP1 MTAP-deleted. Type of assay: cell-based. The note with it: for IC50: Homo sapiens, HAP1, SDMA in-cell western, HAP1 MTAP-deleted, read-out: HAP1 MTAP deleted IC50; for MTAP intact/deleted ratio: IC50 ratio HAP1 MTAP-intact / HAP1 MTAP-deleted, SDMA in-cell western. In short, it runs like this: as §1
Assay [6] addresses T1, PRMT5. The assay can be described thus: PRMT5 biochemical IC50 assay with SAM as cofactor. The conditions noted are these: PRMT5, SAM as cofactor; read-out: SAM IC50.

T1 sequence (O14744 whole entry): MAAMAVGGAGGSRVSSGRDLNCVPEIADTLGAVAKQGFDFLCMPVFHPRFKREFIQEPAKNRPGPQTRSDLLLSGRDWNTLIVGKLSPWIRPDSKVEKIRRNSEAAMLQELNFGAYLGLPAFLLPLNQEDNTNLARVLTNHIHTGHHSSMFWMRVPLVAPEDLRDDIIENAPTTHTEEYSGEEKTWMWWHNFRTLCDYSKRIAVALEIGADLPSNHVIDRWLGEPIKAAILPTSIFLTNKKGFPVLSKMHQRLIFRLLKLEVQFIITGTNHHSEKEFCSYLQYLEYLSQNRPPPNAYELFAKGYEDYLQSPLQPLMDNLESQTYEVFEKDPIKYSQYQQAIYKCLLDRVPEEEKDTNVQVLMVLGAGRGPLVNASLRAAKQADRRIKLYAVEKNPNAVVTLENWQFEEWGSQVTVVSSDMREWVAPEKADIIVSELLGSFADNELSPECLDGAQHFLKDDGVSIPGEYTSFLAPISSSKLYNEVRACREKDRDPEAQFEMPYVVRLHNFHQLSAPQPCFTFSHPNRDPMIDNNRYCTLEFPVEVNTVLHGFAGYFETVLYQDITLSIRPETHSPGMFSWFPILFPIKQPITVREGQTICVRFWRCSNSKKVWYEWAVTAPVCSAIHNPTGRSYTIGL
T1 sequence (Q9BQA1 whole entry partner): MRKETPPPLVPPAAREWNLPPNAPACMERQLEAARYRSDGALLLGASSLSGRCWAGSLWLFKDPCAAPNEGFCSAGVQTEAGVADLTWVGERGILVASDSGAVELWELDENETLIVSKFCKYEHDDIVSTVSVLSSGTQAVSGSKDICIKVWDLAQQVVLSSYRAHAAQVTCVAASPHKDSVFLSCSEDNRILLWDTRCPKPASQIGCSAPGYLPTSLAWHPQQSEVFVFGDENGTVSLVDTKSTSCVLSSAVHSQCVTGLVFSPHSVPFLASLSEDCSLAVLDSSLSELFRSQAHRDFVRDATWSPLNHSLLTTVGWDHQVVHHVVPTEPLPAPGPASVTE

`CCc1cc(NC(=O)C(=O)N2C[C@@H](C)CC[C@@H]2c2ccc3sc(C)nc3c2)cnc1N` (single isomer, unassigned) [Compound 800]: the IC50 is below 1 µM in assay [1]; 100 to 1000 nM in assay [2]; below 50 nM in assay [3]; below 50 nM in assay [4]; below 100 nM in assay [5]; 50 to 500 nM in assay [6]. Moreover, in assay [5], the MTAP intact/deleted ratio result is recorded as “A (an IC50 ratio greater than or equal to 10 fold)”.
As to `CCc1cc(NC(=O)C(=O)N2C[C@H](C)CC[C@H]2c2ccc3sc(C)nc3c2)cnc1N` (single isomer, unassigned) [Compound 801], the IC50 was above 10 µM in assay [1]; above 1000 nM in assay [2]; above 500 nM in assay [3]; above 500 nM in assay [4]; above 1000 nM in assay [5]; above 500 nM in assay [6]. Also, the MTAP intact/deleted ratio entry in assay [5] is given as “B (an IC50 ratio greater than or equal to 3 fold but lower than 10 fold)”.
`Cc1cc(NC(=O)C(=O)N2C[C@H](C)CC[C@H]2c2ccc(CO)cc2)cnc1N` (single isomer, unassigned) [Compound 802]: the IC50 is above 10 µM in assay [1]; above 1000 nM in assay [2]; above 500 nM in assay [3]; above 500 nM in assay [4]; above 1000 nM in assay [5]; above 500 nM in assay [6]. Also, in assay [5], the MTAP intact/deleted ratio result is reported as “B (an IC50 ratio greater than or equal to 3 fold but lower than 10 fold)”.
For `C[C@@H]1CC[C@@H](c2ccc3[nH]c(=O)ccc3c2)N(C(=O)C(=O)Nc2cncc(C(N)=O)c2)C1` (single isomer, unassigned) [Compound 804], the IC50 was above 10 µM in assay [1]; above 1000 nM in assay [2]; above 500 nM in assay [3]; above 500 nM in assay [4]; above 1000 nM in assay [5]; above 500 nM in assay [6]. Further, in assay [5], the MTAP intact/deleted ratio entry was “C (an IC50 ratio of less than 3 fold)”.
As to `COc1ncc(NC(=O)C(=O)N2C[C@@H](C)CC[C@@H]2c2ccc3[nH]cnc3c2)cc1C(N)=O` (single isomer, unassigned) [Compound 805], the IC50 in assay [1] was above 10 µM; in assay [2], above 1000 nM; in assay [3], above 500 nM; in assay [4] it was above 500 nM; in assay [5], 100 to 1000 nM; in assay [6], above 500 nM. The MTAP intact/deleted ratio entry in assay [5] is “A (an IC50 ratio greater than or equal to 10 fold)”.
`Cc1cc(NC(=O)C(=O)N2C[C@@H](C)CC[C@@H]2c2ccc(CO)cc2)cnc1N` (single isomer, unassigned) [Compound 806]: the IC50 is below 1 µM in assay [1]; 100 to 1000 nM in assay [2]; below 50 nM in assay [3]; below 50 nM in assay [4]; below 100 nM in assay [5]; 50 to 500 nM in assay [6]. Also, in assay [5], the MTAP intact/deleted ratio entry is listed as “A (an IC50 ratio greater than or equal to 10 fold)”.
On to `COc1ncc(NC(=O)C(=O)N2C[C@@H](C)CC[C@@H]2c2ccc3[nH]c(=O)ccc3c2)cc1C(N)=O` (single isomer, unassigned) [Compound 807], for which the IC50 was below 1 µM in assay [1]; 100 to 1000 nM in assay [2]; below 50 nM in assay [3]; below 50 nM in assay [4]; below 100 nM in assay [5]; 50 to 500 nM in assay [6]. For the same compound, in assay [5], the MTAP intact/deleted ratio entry is “A (an IC50 ratio greater than or equal to 10 fold)”.
As to `C[C@H]1CC[C@H](c2ccc3[nH]c(=O)ccc3c2)N(C(=O)C(=O)Nc2cncc(C(N)=O)c2)C1` (single isomer, unassigned) [Compound 809], the IC50 in assay [1] is 1 to 10 µM; in assay [2], above 1000 nM; in assay [3], below 50 nM; in assay [4], below 50 nM; in assay [5] it was 100 to 1000 nM; in assay [6], 50 to 500 nM. Besides, in assay [5], the MTAP intact/deleted ratio entry is on record as “A (an IC50 ratio greater than or equal to 10 fold)”.
Turning to `COc1ncc(NC(=O)C(=O)N2C[C@H](C)CC[C@H]2c2ccc3[nH]c(=O)ccc3c2)cc1C(N)=O` (single isomer, unassigned) [Compound 810], the IC50 in assay [1] is above 10 µM; in assay [2] it was above 1000 nM; in assay [3] it was above 500 nM; in assay [4] it was above 500 nM; in assay [5] it was above 1000 nM; in assay [6] it was above 500 nM. Moreover, the MTAP intact/deleted ratio entry in assay [5] was “B (an IC50 ratio greater than or equal to 3 fold but lower than 10 fold)”.
Consider `COc1ncc(NC(=O)C(=O)N2C[C@@H](C)CC[C@@H]2c2ccc(-c3nccs3)cc2)cc1C(N)=O` (single isomer, unassigned) [Compound 811], for which the IC50 in assay [1] was 1 to 10 µM; in assay [2], above 1000 nM; in assay [3], below 50 nM; in assay [4], 50 to 500 nM; in assay [5], 100 to 1000 nM; in assay [6] it was 50 to 500 nM. Further, in assay [5], the MTAP intact/deleted ratio entry is on record as “A (an IC50 ratio greater than or equal to 10 fold)”.
For `CCc1cc(NC(=O)C(=O)N2C[C@H](C)CC[C@H]2c2ccc(-c3nccs3)cc2)cnc1N` (single isomer, unassigned) [Compound 813], the IC50 was below 1 µM in assay [1]; above 1000 nM in assay [2]; below 50 nM in assay [3]; 50 to 500 nM in assay [4]; 100 to 1000 nM in assay [5]; 50 to 500 nM in assay [6]. Further, the MTAP intact/deleted ratio entry in assay [5] was “A (an IC50 ratio greater than or equal to 10 fold)”.
`Cc1cc(NC(=O)C(=O)N2C[C@H](C)CC[C@H]2c2ccc(-c3nccs3)cc2)cnc1N` (single isomer, unassigned) [Compound 816]: the IC50 is above 10 µM in assay [1]; above 1000 nM in assay [2]; above 500 nM in assay [3]; above 500 nM in assay [4]; above 1000 nM in assay [5]; above 500 nM in assay [6]. Further, the MTAP intact/deleted ratio entry in assay [5] is listed as “C (an IC50 ratio of less than 3 fold)”.
On to `C[C@@H]1CC[C@@H](c2ccc(-c3cncs3)cc2)N(C(=O)C(=O)Nc2cncc(C(N)=O)c2)C1` (single isomer, unassigned) [Compound 817, 5-(2-(5-methyl-2-(4-(thiazol-5-yl)phenyl)piperidin-1-yl)-2-oxoacetamido)nicotinamide], for which the IC50 in assay [1] is above 10 µM; in assay [2], above 1000 nM; in assay [3], above 500 nM; in assay [4], above 500 nM; in assay [5], above 1000 nM; in assay [6], above 500 nM. The MTAP intact/deleted ratio result in assay [5] is “C (an IC50 ratio of less than 3 fold)”.
Turning to `CCc1cc(NC(=O)C(=O)N2C[C@H](C)CC[C@H]2c2ccc3[nH]c(=O)ccc3c2)cnc1N` (single isomer, unassigned) [Compound 819], the IC50 is 1 to 10 µM in assay [1]; above 1000 nM in assay [2]; above 500 nM in assay [3]; above 500 nM in assay [4]; 100 to 1000 nM in assay [5]; above 500 nM in assay [6]. Further, the MTAP intact/deleted ratio entry in assay [5] was “A (an IC50 ratio greater than or equal to 10 fold)”.
`Cc1cc(NC(=O)C(=O)N2C[C@@H](C)CC[C@@H]2c2ccc(-c3nccs3)cc2)cnc1N` (single isomer, unassigned) [Compound 820]: the IC50 in assay [1] is below 1 µM; in assay [2], 100 to 1000 nM; in assay [3] it was below 50 nM; in assay [4], 50 to 500 nM; in assay [5], below 100 nM; in assay [6], 50 to 500 nM. For the same compound, in assay [5], the MTAP intact/deleted ratio result is on record as “B (an IC50 ratio greater than or equal to 3 fold but lower than 10 fold)”.
